Laboratory results taken from ChEMBL document CHEMBL1201862, “PubChem BioAssay data set” (2004).
Counter-ions that a name gives are not always drawn. Calls of active or inactive are those of the source.

How the values were obtained:
[1] = biological target: Voltage-gated inwardly rectifying potassium channel KCNH2 (Homo sapiens, UniProt Q12809); settings: Potency;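 further: confirmatory quantitative high-throughput screen measuring inhibition of hERG channel activity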
[2] = biological target: T1, Endoribonuclease toxin MazF (Escherichia coli K-12, UniProt P0AE70); test: fluorescent RNA oligo signal without MazF, dose response, counter-screen for MazEF activator project, biochemical, fluorescence, single-stranded RNase substrate (AID 588502); assay type: functional
T1 sequence (P0AE70 whole entry): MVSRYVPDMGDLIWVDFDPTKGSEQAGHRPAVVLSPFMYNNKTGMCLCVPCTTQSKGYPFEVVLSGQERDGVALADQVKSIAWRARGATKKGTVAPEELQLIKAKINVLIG

[3] = biological target: T1, Endoribonuclease toxin MazF; test: MazF toxin RNase activators, dose response, biochemical, fluorescence, single-stranded RNA substrate, uHTS hits (AID 588481); assay type: functional
Protein RecA = biological target: T2, Protein RecA (Mycobacterium tuberculosis, UniProt P9WHJ3); test: Fluorescence Cell-Free Homogeneous Dose Retest to Identify Inhibitors of RecA-Intein Splicing Activity. [Related pubchem assays (depositor defined):AID2097, AID2223, AID489010, AID492950]; assay type: functional
T2 sequence (P9WHJ3 whole entry): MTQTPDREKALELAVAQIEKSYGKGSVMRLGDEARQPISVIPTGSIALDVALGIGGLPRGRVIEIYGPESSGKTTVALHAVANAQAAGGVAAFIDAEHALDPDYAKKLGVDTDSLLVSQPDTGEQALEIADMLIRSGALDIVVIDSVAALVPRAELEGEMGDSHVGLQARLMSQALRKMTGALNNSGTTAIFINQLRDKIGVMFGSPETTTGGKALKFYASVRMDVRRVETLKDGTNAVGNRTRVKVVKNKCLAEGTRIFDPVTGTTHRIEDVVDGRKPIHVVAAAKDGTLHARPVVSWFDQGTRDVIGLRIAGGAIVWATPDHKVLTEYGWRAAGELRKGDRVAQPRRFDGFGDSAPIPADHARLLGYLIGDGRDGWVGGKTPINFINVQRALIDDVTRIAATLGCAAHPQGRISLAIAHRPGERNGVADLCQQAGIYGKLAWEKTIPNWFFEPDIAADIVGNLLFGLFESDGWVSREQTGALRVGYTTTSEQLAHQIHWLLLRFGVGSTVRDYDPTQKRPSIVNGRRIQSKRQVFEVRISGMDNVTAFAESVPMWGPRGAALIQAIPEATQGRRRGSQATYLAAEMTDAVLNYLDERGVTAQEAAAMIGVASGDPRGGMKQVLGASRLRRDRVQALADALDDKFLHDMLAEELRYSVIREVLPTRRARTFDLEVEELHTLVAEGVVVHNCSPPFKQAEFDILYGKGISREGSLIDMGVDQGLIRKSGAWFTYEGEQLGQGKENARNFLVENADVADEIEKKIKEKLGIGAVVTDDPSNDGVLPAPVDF

[4] = biological target: T3, Microphthalmia-associated transcription factor (Homo sapiens, UniProt O75030); test: TRPM1 promoter luciferase signal decrease, dose response, MITF inhibitor project, cell-based, SK-MEL-5, cherry-picked, set 3 (AID 493073); assay type: functional
T3 sequence (O75030 whole entry): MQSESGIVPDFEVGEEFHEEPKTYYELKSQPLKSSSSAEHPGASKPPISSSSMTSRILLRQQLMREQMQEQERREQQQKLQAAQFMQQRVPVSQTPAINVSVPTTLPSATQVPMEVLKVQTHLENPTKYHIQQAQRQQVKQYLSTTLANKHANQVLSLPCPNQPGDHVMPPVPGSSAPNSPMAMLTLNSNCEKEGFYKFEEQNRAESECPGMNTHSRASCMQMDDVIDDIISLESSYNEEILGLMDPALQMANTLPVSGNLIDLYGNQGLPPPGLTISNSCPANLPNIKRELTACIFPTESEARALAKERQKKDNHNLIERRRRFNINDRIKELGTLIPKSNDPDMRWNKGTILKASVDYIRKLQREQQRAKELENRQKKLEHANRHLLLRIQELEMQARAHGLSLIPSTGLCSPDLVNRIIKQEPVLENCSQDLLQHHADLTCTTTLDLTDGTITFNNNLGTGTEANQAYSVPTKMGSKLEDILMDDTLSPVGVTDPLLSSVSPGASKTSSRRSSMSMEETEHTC

[5] = Luminescence Cell-Based Dose Response HTS to Identify Inhibitors of 5'UTR Stem-Loop Driven Prion Protein mRNA Translation in H4 Neuroglioblastoma Cells. [Related pubchem assays: 1827 (Project Summary), 1813 (Primary HTS)]; assay type: functional
[6] = inhibitors of firefly luciferase expression or activity, dose response, H4 neuroglioma cells, luminescence (AID 1990); assay type: functional, cell-based
[7] = inhibitors of SNCA 5'UTR-driven reporter translation, confirmation, H4 neuroglioma cells, luminescence (AID 1988); assay type: functional, cell-based
[8] = biological target: T4, Replicative DNA helicase DnaB (Mycobacterium tuberculosis, UniProt P9WMR3); test: DnaB intein splicing inhibitors, dose response, biochemical, cell-free fluorescence (AID 449749); assay type: functional
T4 sequence (P9WMR3 whole entry): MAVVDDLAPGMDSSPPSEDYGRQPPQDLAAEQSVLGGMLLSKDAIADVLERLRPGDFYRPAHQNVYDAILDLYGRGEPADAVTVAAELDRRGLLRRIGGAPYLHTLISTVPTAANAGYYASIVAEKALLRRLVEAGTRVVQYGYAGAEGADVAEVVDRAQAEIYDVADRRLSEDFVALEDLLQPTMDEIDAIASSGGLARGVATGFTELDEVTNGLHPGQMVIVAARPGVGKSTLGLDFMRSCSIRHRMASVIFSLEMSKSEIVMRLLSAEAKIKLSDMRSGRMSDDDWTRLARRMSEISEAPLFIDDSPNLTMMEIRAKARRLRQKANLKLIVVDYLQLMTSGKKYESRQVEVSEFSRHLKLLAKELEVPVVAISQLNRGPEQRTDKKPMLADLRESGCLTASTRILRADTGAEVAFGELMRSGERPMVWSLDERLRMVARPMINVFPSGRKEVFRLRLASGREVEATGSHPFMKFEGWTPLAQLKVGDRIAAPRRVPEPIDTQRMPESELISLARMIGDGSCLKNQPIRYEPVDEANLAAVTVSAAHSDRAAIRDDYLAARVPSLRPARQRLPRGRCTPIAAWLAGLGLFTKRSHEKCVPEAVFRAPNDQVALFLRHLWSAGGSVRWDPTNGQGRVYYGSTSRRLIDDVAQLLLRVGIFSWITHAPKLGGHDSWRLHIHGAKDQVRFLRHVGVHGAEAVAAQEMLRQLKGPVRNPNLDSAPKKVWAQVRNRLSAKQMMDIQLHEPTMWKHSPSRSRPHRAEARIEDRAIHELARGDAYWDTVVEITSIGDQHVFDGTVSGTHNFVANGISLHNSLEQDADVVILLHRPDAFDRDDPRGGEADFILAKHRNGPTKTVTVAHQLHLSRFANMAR

[9] = biological target: T5, Ubiquitin-conjugating enzyme E2 N (Homo sapiens, UniProt P61088); assay type: functional;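 further: Dose-response confirmation in a TR-FRET assay detecting UBC13-driven polyubiquitin chain formation, inhibition measured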
T5 sequence (P61088 whole entry): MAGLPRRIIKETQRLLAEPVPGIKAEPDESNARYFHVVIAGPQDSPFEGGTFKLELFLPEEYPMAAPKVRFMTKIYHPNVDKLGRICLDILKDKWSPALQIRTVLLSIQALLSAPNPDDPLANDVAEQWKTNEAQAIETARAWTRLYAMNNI

Phospholipase A2 = Phospholipase A2 (Homo sapiens, UniProt P04054); assay type: functional;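 further: confirmatory dose-response counterscreen on phospholipase A2, testing hits that came from an ultra-high-throughput screen for ATG4B inhibitors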
Cysteine protease ATG4B = biological target: T6, Cysteine protease ATG4B (Homo sapiens, UniProt Q9Y4P1); assay type: functional;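 further: Fluorescence-based dose-response confirmation assay measuring inhibition of ATG4B activity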
T6 sequence (Q9Y4P1 whole entry): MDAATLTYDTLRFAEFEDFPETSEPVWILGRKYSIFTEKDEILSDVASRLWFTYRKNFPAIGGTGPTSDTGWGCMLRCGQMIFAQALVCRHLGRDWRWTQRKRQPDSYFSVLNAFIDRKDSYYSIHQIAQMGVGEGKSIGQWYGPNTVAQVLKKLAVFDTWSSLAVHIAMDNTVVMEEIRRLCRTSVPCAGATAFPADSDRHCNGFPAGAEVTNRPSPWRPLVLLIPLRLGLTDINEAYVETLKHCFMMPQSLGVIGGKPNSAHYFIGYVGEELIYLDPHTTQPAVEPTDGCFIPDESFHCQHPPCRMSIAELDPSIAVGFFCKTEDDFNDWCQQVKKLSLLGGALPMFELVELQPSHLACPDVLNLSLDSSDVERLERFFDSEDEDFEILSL

Genome polyprotein = Genome polyprotein (dengue virus type 2, UniProt P29990); test: Dengue-2 NS5 methyltransferase inhibitors, primary screen, biochemical, confirmation dose response (AID 588689); assay type: functional
Vero [10] = test: Vero cell cytotoxicity, cytotoxicity control for flavivirus capping enzyme inhibitors (AID 588742); assay type: functional; settings: Chlorocebus sabaeus
[11] = biological target: T7, Type-1 angiotensin II receptor (Homo sapiens, UniProt P30556); test: AT1 receptor antagonists, dose response, selectivity assay for APJ receptor antagonist project, cell-based, uHTS hits (AID 463214); assay type: functional;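 further: antagonist potency against angiotensin II stimulated AT1 response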
T7 sequence (P30556 whole entry): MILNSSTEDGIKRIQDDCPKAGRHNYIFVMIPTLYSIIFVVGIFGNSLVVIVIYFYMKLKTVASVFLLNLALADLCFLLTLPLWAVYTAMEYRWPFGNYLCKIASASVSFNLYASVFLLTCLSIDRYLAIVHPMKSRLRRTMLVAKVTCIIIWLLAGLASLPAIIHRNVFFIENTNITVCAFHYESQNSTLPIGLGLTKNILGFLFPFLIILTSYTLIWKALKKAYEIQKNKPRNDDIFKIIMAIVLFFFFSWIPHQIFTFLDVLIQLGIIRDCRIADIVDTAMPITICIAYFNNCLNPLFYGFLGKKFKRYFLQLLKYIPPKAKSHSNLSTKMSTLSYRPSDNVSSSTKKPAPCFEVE

Streptococcus = test: Group A Streptococcus viability loss, dose response, counter-screen for streptokinase expression inhibitor project, luminescence, BacTiterGlo (AID 1915); assay type: functional, organism-based;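 further: potency for reduction of bacterial viability or growth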
[12] = tested on: Streptococcus sp. 'group A'; test: growth inhibition of control SK(-) GAS strain, dose response, counter-screen for streptokinase expression inhibitor project, luminescence, kanamycin, BacTiterGlo, confirmation (AID 1900); assay type: functional, organism-based
Beta-galactosidase = Beta-galactosidase (Escherichia coli, UniProt Q8VNN2); test: PubChem AID 485352; assay type: functional
Vero [13] = test: cells; assay type: functional, cell-based; settings: Chlorocebus sabaeus
Vero [14] = test: cells; assay type: functional; settings: Chlorocebus sabaeus
[15] = HEp-2 cell cytotoxicity, dose response, cytotoxicity control for RSV inhibitor project, HTS (AID 2410); assay type: functional; settings: human respiratory syncytial virus
Cytochrome P450 3A4 = Cytochrome P450 3A4 (Homo sapiens, UniProt P08684);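 further: CYP3A4 tested as one member of a cytochrome P450 panel screen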
Chain of Cytochrome P450 3A4 (P08684 whole entry): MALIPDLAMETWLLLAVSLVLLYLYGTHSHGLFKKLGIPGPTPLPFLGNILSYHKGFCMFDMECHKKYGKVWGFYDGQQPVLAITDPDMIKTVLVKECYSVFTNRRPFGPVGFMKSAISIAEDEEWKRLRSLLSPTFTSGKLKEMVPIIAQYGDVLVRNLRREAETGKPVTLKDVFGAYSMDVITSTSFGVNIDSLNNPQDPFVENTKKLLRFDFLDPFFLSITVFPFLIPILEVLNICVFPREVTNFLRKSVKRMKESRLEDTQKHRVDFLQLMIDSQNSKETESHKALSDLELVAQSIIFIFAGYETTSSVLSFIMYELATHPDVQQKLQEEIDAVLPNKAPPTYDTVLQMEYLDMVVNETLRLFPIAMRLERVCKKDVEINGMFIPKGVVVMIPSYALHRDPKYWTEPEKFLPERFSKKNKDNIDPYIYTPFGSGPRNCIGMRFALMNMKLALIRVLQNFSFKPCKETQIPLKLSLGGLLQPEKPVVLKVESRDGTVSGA

Chain of Voltage-gated inwardly rectifying potassium channel KCNH2 (Q12809 whole entry): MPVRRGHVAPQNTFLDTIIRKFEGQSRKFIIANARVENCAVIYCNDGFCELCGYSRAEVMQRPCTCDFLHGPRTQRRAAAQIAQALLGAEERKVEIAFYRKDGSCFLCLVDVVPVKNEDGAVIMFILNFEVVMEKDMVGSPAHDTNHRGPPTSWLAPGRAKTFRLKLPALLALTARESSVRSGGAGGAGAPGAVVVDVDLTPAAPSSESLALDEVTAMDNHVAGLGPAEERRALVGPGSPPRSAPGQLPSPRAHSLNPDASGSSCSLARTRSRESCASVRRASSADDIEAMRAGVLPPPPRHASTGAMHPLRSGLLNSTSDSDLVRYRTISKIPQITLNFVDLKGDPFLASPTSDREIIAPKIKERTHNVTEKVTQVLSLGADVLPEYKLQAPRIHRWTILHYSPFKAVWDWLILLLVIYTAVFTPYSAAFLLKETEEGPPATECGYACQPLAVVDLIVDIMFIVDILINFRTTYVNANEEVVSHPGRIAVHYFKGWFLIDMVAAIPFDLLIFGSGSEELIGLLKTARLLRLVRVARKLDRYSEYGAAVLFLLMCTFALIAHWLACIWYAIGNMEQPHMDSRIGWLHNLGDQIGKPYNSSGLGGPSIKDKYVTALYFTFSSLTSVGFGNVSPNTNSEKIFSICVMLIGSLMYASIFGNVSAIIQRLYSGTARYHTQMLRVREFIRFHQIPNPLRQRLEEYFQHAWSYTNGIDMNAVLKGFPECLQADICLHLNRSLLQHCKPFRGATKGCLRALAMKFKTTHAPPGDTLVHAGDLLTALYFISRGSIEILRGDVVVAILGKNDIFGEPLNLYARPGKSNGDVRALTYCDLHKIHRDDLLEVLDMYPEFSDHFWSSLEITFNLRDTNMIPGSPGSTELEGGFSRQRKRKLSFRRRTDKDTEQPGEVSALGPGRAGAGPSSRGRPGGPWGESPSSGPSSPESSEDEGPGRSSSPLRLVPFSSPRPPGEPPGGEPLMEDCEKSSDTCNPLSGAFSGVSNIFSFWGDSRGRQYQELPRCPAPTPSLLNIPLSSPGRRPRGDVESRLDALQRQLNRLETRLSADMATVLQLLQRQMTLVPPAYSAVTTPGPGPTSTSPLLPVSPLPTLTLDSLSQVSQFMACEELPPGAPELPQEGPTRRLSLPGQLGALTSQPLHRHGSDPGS
Chain of Beta-galactosidase (Q8VNN2 whole entry): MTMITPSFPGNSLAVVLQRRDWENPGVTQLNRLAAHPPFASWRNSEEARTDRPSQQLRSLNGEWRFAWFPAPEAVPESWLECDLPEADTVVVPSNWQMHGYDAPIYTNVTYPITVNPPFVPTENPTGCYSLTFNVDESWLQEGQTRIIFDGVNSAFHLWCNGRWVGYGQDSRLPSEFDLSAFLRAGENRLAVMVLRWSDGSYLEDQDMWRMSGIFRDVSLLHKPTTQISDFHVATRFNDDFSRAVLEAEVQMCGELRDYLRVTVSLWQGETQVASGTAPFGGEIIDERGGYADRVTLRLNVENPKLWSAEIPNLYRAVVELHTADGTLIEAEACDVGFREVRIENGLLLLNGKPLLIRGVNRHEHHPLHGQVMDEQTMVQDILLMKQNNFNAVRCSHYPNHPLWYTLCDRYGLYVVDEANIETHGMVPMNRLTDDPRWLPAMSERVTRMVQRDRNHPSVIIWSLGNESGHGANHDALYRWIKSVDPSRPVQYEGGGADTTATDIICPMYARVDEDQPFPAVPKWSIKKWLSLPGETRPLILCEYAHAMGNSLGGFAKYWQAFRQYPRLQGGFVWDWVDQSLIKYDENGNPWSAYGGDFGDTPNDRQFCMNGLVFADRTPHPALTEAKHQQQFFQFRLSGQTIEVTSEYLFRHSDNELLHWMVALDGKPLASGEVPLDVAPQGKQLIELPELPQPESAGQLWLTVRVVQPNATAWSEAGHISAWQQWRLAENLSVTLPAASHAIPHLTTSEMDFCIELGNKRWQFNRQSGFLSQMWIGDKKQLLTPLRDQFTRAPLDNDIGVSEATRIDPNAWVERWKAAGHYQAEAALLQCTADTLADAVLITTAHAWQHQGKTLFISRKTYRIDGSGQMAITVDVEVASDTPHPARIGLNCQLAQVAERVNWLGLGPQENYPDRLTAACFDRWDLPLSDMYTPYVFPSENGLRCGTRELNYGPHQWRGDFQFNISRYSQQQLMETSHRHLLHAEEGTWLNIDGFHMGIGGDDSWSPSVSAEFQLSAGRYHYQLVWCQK
Chain of Genome polyprotein (P29990 2492-3391 limits assumed): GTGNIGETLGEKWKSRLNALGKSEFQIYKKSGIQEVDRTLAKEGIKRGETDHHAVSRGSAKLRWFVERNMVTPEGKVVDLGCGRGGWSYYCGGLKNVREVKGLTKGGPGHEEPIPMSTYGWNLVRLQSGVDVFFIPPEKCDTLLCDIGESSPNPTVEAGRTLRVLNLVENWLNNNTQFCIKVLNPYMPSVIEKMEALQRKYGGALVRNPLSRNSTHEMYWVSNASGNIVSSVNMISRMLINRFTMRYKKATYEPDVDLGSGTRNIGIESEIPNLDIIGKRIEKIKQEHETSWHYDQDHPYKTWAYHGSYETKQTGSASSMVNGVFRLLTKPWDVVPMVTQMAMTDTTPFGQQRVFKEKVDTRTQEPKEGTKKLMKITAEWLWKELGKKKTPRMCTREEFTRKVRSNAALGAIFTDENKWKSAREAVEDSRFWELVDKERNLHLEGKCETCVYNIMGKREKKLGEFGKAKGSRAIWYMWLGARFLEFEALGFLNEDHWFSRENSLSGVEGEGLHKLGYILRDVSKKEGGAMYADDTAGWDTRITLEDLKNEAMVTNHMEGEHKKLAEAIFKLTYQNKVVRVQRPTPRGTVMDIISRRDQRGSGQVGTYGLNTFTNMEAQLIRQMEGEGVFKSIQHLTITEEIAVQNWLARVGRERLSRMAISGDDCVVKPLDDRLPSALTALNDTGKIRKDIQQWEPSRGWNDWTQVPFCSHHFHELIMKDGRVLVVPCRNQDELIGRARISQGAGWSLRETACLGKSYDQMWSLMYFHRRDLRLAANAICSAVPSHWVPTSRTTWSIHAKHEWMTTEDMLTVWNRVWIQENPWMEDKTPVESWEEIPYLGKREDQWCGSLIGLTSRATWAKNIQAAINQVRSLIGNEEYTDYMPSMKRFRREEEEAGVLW
Chain of Phospholipase A2 (P04054 whole entry): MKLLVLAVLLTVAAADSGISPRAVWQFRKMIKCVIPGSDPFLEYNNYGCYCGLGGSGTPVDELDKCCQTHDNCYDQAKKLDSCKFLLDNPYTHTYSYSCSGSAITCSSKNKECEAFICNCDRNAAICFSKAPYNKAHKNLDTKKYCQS

CCOc1ccc2nc(N)sc2c1
AC50 [1]: 28.2 µM (inconclusive)

COC(=O)CSc1nc2cc(OC)ccc2cc1C#N
EC50 [2]: 48.4 µM (inactive)
EC50 [3]: > 99 µM (inactive)

O=C1c2ccccc2C(=O)c2c1ncn2-c1ccccc1
EC50 (Protein RecA): 229 µM (active)
AC50 [4]: 7.33 µM (active)
EC50 [5]: 15.6 µM (active)
EC50 [6]: 13.1 µM (active)
EC50 [7]: 9.51 µM (active)
AC50 [8]: 57.3 µM (active)

CN1CCC(=C2c3ccccc3CC(=O)c3sccc32)CC1 [KETOTIFEN FUMARATE]
AC50 [1]: 22.4 µM (inconclusive)

N=c1n(CC(=O)c2ccc(Br)cc2)c2ccccc2n1Cc1ccccc1
AC50 [4]: 6.41 µM (active)
IC50 [9]: > 20 µM (inactive)

CNc1ccc(/C=C(\C#N)C(=O)Nc2ccccn2)cc1[N+](=O)[O-]
EC50 [2]: 39.2 µM (inactive)
EC50 [3]: > 99 µM (inactive)

Cc1ccccc1S(=O)(=O)N1[C@@H](c2ccc(Br)cc2)C(C(=O)O)=CC[C@H]1c1ccc(Cl)cc1
IC50 (Phospholipase A2): 6.72 µM (active)
IC50 (Cysteine protease ATG4B): 7.71 µM (active)
IC50 (Genome polyprotein): 41.4 µM (active)
CC50 (Vero [10]): > 40 µM (active)

O=C(CN1c2ccccc2Sc2ccccc21)NNC(=S)Nc1ccc(Cl)cc1
IC50 [11]: > 40 µM (not active)
EC50 (Streptococcus): 3.6 µM (active)
EC50 [12]: 3.35 µM (active)
EC50 (Beta-galactosidase): > 40 µM (inactive)

COc1ccc(/C=C/C(=O)NC(=S)NNC(=O)c2c(-c3ccccc3)noc2C)cc1
IC50 [11]: 35.5 µM (not active)
EC50 (Beta-galactosidase): > 40 µM (inactive)

CC1(C)Oc2ccc3ccc(=O)oc3c2C(/C=N/NC(N)=O)=C1O
IC50 [11]: > 40 µM (not active)
EC50 (Beta-galactosidase): > 40 µM (inactive)

CN(C)c1ccc(C=C2C(=O)NC(=S)NC2=O)cc1
IC50 (Vero [13]): > 25 µM (active)
CC50 (Vero [10]): 31.4 µM (active)
CC50 (Vero [14]): 22.2 µM (active)

CCOC(=O)c1c(-c2cccc(C)c2)csc1NC(=O)c1c(-c2ccccc2)noc1C
CC50 [15]: 5.17 µM (active)
IC50 (cells): 9.89 µM (active)
IC50 (Vero [13]): 1.43 µM (active)
AC50 (Cytochrome P450 3A4): 5.62 µM (inconclusive)
CC50 (Vero [14]): > 25 µM (active)

c1ccc2c(c1)-c1cccc3cccc-2c13 [FLUORANTHENE]
AC50 [1]: 12.6 µM (inconclusive)
